Measured values as given in patent US20220009920A1 (GB005, Inc., priority 2020, published 2022).

What was measured:
Assay in all cases: Large panel kinase profiling
Type in all cases: biochemical
Conditions in all cases: 1 μM test article, 1 mM ATP
MAP4K4/HGK = target: T1, MAP4K4/HGK (Homo sapiens, UniProt O95819)
T1 construct: AssayQuant Technologies, Inc. (service provider)
Method in brief: (§1)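 CSox-Sensor fluorescence readout; test article 1 μM, ATP 1 mM, 30° C.; kinetic reads at 1-min intervals, Ex 360/Em 485 nm.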

RPS6KA5/MSK1 = target: T2, RPS6KA5/MSK1 (Homo sapiens, UniProt O75582)
T2 construct: AssayQuant Technologies, Inc. (contract assay)
T2 sequence (O75582 whole entry): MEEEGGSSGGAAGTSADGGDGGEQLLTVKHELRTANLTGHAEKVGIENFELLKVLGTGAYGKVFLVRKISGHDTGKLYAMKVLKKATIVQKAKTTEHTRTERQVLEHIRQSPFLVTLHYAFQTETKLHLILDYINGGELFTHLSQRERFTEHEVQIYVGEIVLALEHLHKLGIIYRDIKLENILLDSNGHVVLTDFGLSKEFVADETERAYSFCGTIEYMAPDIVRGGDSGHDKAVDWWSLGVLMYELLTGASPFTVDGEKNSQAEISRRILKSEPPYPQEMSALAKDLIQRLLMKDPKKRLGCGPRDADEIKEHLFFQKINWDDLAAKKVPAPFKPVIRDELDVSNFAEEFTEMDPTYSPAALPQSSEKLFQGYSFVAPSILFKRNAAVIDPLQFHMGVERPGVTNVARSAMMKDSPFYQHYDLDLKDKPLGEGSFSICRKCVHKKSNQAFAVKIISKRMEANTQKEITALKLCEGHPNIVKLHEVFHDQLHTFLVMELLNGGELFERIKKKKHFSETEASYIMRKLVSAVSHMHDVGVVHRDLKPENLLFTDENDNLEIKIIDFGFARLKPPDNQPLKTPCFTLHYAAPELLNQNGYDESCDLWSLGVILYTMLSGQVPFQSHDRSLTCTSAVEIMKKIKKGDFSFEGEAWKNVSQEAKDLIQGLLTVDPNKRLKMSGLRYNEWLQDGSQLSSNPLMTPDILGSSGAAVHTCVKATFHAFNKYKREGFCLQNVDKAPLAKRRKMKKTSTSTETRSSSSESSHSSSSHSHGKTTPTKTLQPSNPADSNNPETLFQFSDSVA
Method in brief: as §1

MAP3K12 = target: T3, MAP3K12 (Homo sapiens, UniProt Q12852)
T3 sequence (Q12852 1-859): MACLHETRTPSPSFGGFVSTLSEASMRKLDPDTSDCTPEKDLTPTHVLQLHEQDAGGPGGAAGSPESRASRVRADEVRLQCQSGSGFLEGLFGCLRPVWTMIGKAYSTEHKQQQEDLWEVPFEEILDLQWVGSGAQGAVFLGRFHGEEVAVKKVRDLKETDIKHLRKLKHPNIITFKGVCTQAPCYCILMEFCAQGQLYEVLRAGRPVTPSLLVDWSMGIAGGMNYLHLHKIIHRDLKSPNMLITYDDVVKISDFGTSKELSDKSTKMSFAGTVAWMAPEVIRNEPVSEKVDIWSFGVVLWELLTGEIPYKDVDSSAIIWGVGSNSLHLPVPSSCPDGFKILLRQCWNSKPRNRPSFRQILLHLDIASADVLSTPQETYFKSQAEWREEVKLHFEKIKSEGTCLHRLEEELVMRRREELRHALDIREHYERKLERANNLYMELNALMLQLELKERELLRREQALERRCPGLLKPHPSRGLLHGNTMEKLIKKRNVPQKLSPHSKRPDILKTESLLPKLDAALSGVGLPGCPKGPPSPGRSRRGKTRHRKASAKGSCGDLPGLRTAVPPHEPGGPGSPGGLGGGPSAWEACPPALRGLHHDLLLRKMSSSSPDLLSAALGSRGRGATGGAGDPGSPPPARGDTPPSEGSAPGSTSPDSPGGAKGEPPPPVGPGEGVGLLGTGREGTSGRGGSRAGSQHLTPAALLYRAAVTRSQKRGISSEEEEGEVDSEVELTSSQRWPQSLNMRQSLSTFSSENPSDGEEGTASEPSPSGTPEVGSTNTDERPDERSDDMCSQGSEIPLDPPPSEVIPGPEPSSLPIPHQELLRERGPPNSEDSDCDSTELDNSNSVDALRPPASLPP
Method in brief: as §1

EPHB3 = target: T4, EPHB3 (Homo sapiens, UniProt P54753)
T4 sequence (P54753 34-998): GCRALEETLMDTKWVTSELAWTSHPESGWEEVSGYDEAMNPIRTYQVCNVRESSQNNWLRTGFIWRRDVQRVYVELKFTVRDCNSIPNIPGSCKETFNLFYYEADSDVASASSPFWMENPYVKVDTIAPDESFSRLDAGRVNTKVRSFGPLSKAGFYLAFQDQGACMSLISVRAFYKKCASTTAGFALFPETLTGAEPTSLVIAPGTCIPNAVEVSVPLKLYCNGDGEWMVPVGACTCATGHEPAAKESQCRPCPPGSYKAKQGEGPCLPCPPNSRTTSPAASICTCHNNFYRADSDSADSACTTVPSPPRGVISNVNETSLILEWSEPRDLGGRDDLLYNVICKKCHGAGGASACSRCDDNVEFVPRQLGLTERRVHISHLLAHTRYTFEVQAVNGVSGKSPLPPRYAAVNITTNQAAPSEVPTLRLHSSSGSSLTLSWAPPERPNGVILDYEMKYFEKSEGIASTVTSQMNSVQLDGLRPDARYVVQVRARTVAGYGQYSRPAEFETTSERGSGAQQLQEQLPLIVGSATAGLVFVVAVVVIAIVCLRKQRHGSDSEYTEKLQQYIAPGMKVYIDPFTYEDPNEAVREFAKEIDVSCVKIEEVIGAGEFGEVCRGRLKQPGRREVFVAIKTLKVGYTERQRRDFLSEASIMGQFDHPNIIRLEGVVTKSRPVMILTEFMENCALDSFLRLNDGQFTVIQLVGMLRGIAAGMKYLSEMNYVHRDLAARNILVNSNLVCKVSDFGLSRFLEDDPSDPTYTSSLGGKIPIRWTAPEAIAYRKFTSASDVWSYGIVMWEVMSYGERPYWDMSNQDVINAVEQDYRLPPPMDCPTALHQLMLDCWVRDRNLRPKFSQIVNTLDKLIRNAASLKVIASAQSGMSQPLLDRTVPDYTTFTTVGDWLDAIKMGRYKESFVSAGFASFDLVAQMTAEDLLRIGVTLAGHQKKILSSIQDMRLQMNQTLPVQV
Method in brief: as §1

JAK1(JH1) = target: T5, JAK1(JH1) (Homo sapiens, UniProt P23458)
T5 construct: JAK1(JH1)
T5 sequence (P23458 875-1153 limits assumed, species assumed): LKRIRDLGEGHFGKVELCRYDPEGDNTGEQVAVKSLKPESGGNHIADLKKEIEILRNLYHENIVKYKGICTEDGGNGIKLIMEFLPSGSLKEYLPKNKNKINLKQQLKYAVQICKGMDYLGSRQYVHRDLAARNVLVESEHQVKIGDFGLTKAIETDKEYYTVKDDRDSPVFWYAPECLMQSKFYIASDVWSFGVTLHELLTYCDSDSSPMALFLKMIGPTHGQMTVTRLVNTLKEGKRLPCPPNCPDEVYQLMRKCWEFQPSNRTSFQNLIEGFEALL
Method in brief: as §1

RPS6KA3/RSK2 = target: T6, RPS6KA3/RSK2 (Homo sapiens, UniProt P51812)
T6 construct: AssayQuant Technologies, Inc. (contract assay)
T6 sequence (P51812 whole entry): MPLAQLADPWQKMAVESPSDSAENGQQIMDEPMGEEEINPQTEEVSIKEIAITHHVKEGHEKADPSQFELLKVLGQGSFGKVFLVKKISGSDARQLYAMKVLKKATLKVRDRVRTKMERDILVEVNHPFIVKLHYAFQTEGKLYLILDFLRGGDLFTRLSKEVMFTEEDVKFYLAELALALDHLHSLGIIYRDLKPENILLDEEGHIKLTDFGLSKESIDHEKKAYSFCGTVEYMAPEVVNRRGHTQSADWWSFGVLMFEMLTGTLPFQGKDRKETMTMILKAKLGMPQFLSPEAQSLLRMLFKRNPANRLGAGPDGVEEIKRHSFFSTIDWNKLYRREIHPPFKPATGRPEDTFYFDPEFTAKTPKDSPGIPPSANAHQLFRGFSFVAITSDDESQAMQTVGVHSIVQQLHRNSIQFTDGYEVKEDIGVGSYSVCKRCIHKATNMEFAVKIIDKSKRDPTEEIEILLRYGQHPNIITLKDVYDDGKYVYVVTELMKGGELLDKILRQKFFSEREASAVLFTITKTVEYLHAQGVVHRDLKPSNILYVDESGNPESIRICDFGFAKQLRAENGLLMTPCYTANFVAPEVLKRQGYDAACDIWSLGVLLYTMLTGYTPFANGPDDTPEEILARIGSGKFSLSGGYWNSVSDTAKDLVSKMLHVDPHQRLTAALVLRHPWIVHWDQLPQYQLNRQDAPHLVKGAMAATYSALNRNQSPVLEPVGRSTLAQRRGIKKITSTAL
Method in brief: as §1

CDK9/T1 = target: T7, CDK9/T1 (Homo sapiens, UniProt P50750)
T7 construct: AssayQuant Technologies, Inc. (ran the panel)
T7 sequence (P50750 whole entry, species assumed): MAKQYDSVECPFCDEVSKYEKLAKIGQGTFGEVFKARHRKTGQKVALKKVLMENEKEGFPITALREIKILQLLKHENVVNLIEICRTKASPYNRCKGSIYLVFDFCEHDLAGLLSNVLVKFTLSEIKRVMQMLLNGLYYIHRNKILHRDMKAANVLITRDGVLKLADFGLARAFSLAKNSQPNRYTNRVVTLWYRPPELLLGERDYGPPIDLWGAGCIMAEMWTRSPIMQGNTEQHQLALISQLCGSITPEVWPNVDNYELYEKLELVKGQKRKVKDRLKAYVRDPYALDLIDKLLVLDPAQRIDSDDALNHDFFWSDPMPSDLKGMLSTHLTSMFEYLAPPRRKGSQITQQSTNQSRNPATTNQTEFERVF
T7 sequence (O60563 whole entry partner, species assumed): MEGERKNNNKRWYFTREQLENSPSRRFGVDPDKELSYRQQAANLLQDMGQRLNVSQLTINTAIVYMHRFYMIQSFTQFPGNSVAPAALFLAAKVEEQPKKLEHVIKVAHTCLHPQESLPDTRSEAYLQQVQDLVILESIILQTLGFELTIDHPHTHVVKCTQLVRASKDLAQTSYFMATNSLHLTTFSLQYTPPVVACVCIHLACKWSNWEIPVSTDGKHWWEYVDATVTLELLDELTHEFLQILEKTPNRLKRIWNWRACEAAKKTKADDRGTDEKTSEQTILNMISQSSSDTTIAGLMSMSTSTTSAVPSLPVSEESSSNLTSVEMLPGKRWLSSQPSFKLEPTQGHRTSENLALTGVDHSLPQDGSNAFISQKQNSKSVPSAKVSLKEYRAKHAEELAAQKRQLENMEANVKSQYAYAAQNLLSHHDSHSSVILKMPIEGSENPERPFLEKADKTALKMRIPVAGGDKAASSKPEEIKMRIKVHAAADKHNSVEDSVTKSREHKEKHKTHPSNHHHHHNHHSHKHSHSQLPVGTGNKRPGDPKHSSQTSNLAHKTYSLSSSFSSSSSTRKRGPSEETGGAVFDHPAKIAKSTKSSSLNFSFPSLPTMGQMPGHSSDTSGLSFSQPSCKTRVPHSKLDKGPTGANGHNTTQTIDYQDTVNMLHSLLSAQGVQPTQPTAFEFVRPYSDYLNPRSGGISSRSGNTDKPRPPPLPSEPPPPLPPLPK
Method in brief: as §1

PASK = PASK (Homo sapiens, UniProt Q96RG2)
Method in brief: as §1

T1 sequence (O95819 whole entry): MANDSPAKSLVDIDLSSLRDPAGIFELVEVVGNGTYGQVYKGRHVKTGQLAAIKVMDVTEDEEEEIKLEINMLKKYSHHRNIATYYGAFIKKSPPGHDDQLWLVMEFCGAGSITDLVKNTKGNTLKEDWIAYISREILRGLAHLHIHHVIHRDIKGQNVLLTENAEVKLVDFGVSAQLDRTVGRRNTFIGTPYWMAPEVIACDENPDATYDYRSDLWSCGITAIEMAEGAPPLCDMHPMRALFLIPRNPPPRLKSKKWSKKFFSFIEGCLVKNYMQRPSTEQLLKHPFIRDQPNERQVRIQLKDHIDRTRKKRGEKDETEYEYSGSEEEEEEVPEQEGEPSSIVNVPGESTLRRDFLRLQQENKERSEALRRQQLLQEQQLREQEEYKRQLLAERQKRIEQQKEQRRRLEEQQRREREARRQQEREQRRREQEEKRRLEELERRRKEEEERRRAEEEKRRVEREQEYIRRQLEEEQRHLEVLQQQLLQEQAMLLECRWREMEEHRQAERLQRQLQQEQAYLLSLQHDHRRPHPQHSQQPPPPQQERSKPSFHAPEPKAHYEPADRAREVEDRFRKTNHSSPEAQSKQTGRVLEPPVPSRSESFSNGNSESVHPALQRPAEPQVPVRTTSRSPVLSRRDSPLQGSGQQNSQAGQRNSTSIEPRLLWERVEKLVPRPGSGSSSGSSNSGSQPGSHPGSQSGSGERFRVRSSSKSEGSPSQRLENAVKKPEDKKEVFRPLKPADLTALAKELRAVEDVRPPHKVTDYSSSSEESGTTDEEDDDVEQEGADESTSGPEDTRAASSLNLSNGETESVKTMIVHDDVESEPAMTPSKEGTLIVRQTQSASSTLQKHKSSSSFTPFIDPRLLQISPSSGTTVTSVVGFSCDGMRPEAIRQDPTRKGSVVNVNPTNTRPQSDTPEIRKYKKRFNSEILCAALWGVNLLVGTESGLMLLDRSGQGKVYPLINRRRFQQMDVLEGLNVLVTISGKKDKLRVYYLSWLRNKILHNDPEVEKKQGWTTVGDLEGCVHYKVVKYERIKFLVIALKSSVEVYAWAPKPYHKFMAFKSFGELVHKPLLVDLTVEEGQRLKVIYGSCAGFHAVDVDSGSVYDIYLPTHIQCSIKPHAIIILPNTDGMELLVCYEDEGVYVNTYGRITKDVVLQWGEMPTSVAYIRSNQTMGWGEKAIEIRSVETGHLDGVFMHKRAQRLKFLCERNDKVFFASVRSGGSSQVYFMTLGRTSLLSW

**Q.** Which results are given for `C=CC(=O)N1CCCC(c2c(F)cc(C(N)=O)c3[nH]c4c(c23)CCCCC4)C1` (single isomer, unassigned) [Compound 5-6]?
**A.** inhibition at 1 µM (MAP4K4/HGK): -22.7%; inhibition at 1 µM (RPS6KA5/MSK1): -20.7%; inhibition at 1 µM (MAP3K12): 5%; inhibition at 1 µM (EPHB3): 17.6%; inhibition at 1 µM (JAK1(JH1)): 1.3%; inhibition at 1 µM (RPS6KA3/RSK2): 5.8%; inhibition at 1 µM (CDK9/T1): -11%; inhibition at 1 µM (PASK): 1.8%

**Q.** Which inhibition at 1 µM (MAP4K4/HGK) does the source give for `C=CC(=O)N1CCC[C@@H](c2c(F)cc(C(N)=O)c3[nH]c4c(c23)CCC4)C1` [Compound 10-2, (S)-8-(1-acryloylpiperidin-3-yl)-7-fluoro-1,2,3,4-tetrahydrocyclo-penta[b]indole-5-carboxamide] here?
**A.** -10.5%

**Q.** What about the inhibition at 1 µM (RPS6KA5/MSK1) of the same molecule?
**A.** -14.5%

**Q.** And the inhibition at 1 µM (MAP3K12)?
**A.** -27.7%

**Q.** What about the inhibition at 1 µM (EPHB3) of the same molecule?
**A.** -10.1%

**Q.** And the inhibition at 1 µM (JAK1(JH1))?
**A.** 1.9%

**Q.** What about the inhibition at 1 µM (RPS6KA3/RSK2) of the same molecule?
**A.** -27.7%

**Q.** What about the inhibition at 1 µM (CDK9/T1) of the same molecule?
**A.** -26.7%

**Q.** And the inhibition at 1 µM (PASK)?
**A.** -8.5%

**Q.** For `C=CC(=O)N1CCC[C@@H](c2c(F)cc(C(N)=O)c3[nH]c4c(c23)CC2(CC4)CC2)C1` [Compound 6-2, (S)-5-(1-acryloylpiperidin-3-yl)-6-fluoro-1,2,4,9-tetrahydrospiro[carbazole-3,1′-cyclopropane]-8-carboxamide], which inhibition at 1 µM (MAP4K4/HGK) is on record?
**A.** 2.9%

**Q.** What about the inhibition at 1 µM (RPS6KA5/MSK1) of the same molecule?
**A.** -4.2%

**Q.** And the inhibition at 1 µM (MAP3K12)?
**A.** -18.8%

**Q.** What about the inhibition at 1 µM (EPHB3) of the same molecule?
**A.** -24.4%

**Q.** What about the inhibition at 1 µM (JAK1(JH1)) of the same molecule?
**A.** 25.6%

**Q.** What about the inhibition at 1 µM (RPS6KA3/RSK2) of the same molecule?
**A.** -34.6%

**Q.** And the inhibition at 1 µM (CDK9/T1)?
**A.** -9.9%

**Q.** And the inhibition at 1 µM (PASK)?
**A.** -8%
